In BindingDB's records for doi:10.1021/bi7018282 (Cornell University, 2008) one finds Kd data, which are given here for two compounds.

Each structure is given as a SMILES string.

The test concerns the target T1, Thiamine-binding periplasmic protein (Escherichia coli (strain K12), UniProt P31550).
T1 sequence (P31550 whole entry): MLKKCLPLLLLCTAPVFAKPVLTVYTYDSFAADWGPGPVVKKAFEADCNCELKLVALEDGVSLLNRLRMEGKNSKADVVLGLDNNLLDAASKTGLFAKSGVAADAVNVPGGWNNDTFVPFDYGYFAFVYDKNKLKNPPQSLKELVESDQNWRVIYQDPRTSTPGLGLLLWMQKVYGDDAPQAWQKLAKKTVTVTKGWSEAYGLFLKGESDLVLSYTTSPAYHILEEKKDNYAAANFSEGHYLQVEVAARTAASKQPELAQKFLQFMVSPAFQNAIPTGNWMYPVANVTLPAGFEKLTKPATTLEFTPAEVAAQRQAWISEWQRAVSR
Put plainly: Titration Assay. How it is done:
the kd for ThOH, ThMP and ThDP were determined using titration experiments in which the change in the intrinsic protein fluorescence was monitored as a function of ligand concentration.

`Cc1ncc(C[n+]2csc(CCO[P@](=O)(O)OP(=O)(O)O)c2C)c(N)n1` [ThDP] registered a Kd of 7.4 nM. On to `Cc1ncc(C[n+]2csc(CCO)c2C)c(N)n1` [Vitamin B 1], for which binding was characterised by a dissociation constant (Kd) of 3.8 nM.

For orientation: Kd means the concentration at which binding is half-saturated. A lower Kd goes with higher affinity.
